Data: patent publication US20250177426A1, “METHODS AND COMPOSITIONS FOR TREATING DEMENTIA” (Cognitive Synergy Corporation, priority 2023, published 2025)
Several values for one entry are separate records, joined by “and”; a condition that tells them apart may be missing. Identical values can stand only once.

Key:
Aβ protein = molecular target: T1, Aβ protein (Homo sapiens, UniProt P05067); test: Aβ fibrillization, percent of control; format: biochemical; conditions: for Aβ fibrillization as compared to the control: FIG. 12; for Aβ fibrillization as compared to control: FIG. 7; for fibrillization of Aβ protein: FIG. 9, control = 100
T1 construct: The bar graph 700 includes a control sample with 10 μM Aβ protein
T1 sequence (P05067 672-711 limits assumed): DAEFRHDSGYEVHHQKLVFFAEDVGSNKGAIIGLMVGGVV
Description: Referring to FIG. 7, FIG. 7 is a bar graph 700 showing a percentage of Aβ fibrillization as compared to a control for neoliquiritin, sebiricose A5, (Z)SA glycoside, and (E)SA glycoside. The bar graph 700 includes a control sample with 10 μM Aβ protein. The amount of Aβ fibrillization in the control sample is normalized to 100%. All other samples in the bar graph 700 include 10 μM Aβ protein and another compound at a concentration of 100 μM.
Referring to FIG. 8, FIG. 8 is a bar graph 800 showing a percentage of Aβ fibrillization as compared to a control for neoliquiritin samples of various concentrations. The amount of Aβ fibrillization in the control sample is normalized to 100%. All other samples in the bar graph 800 include 10 μM Aβ protein and a variable concentration of neoliquiritin.
Referring to FIG. 9, FIG. 9 is a bar graph 900 showing a percentage of Aβ fibrillization as compared to a control for neoliquiritin and liquiritigenin samples of various concentrations. Like the other bar graphs, the control sample is on the left side of the bar graph 900. The control sample comprises 10 μM Aβ protein and the percent fibrillization of Aβ protein in the control sample is normalized to 100. All other samples, which contain either neoliquiritin or liquiritigenin, also include a concentration of 10 μM Aβ protein.
Referring to FIG. 12, FIG. 12 is a bar graph 1200 showing a percentage of Aβ fibrillization as compared to a control for sinapic acid, trans-sinapic acid, and sinapic acid O-glucoside at various concentrations. On the left side of the bar graph 1200, a control sample comprising 10 μM Aβ protein has a fibrillization measurement normalized to 100. All other samples include the same concentration of 10 μM Aβ protein as a control sample.

SH-SY5Y cells = test: Survival of SH-SY5Y cells in solutions of Aβ; format: cell-based; conditions: FIG. 11, Aβ-only control 69%
Description: Referring to FIG. 10, FIG. 10 is a bar graph 1000 showing a percentage of survival of SH-SY5Y cells in solutions of Aβ and various concentrations of neoliquiritin. […] All the samples in the bar graph 1000 comprised the same concentration of 10 μM Aβ protein as the control sample as well as a variable concentration of neoliquiritin.
Referring to FIG. 11, FIG. 11 is a bar graph 1100 showing a percentage of survival of SH-SY5Y cells in solutions of neoliquiritin, isoliquiritigenin, isoliquiritin, sinapic acid O-glucoside, trans-sinapic acid, and liquiritigenin at various concentrations. […] The other samples in the bar graph 1100 all contain the same concentration of 10 μM Aβ protein as a control sample.

Aβ fibrils = molecular target: T2, Aβ fibrils (Homo sapiens, UniProt P05067); test: Relative fluorescence of prefibrillated Aβ after timed treatment; format: biochemical; conditions: FIG. 14, 50 μM compound
T2 construct: The bar graph 700 includes a control sample with 10 μM Aβ protein
T2 sequence (P05067 672-711 limits assumed): as above
From the text: Control samples containing only Aβ protein as starting material are unshaded. Other samples containing Aβ protein and an additional compound have shading according to the legend on the bottom of the bar graphs 1400.

[1] = 10 μM Aβ protein and 100 nM compound
[2] = 10 μM Aβ protein and 1 μM compound
[3] = 10 μM Aβ protein and 10 μM compound
[4] = 10 μM Aβ protein and 100 μM compound

COc1cc(/C=C/C(=O)O)cc(OC)c1O [SA, sinapic acid, reference compound]
Aβ fibrillization as compared to the control (Aβ protein; [1]): 105%
Aβ fibrillization as compared to the control (Aβ protein; [2]): 101%
Aβ fibrillization as compared to the control (Aβ protein; [3]): 114%
Aβ fibrillization as compared to the control (Aβ protein; [4]): 85%

O=C(/C=C/c1ccc(O)cc1)c1ccc(O)cc1O [isoliquiritigenin]
survival for the SH-SY5Y cells (SH-SY5Y cells; [2]): 84%
survival for the SH-SY5Y cells (SH-SY5Y cells; [3]): 81%

Sebiricose A5 [reference compound]
Aβ fibrillization as compared to control (Aβ protein; [4]): 86%

COc1cc(/C=C/C(=O)O)cc(OC)c1O[C@@H]1O[C@H](O)[C@@H](O)[C@H](O)[C@H]1O [(E)SA glycoside]
Aβ fibrillization as compared to control (Aβ protein; [4]): 51%

COc1cc(/C=C/C(=O)O)cc(OC)c1O [T-SA, trans-sinapic acid, reference compound]
Aβ fibrillization as compared to the control (Aβ protein; [1]): 98%
Aβ fibrillization as compared to the control (Aβ protein; [2]): 95%
Aβ fibrillization as compared to the control (Aβ protein; [3]): 89%
Aβ fibrillization as compared to the control (Aβ protein; [4]): 79%
Relative fluorescence for Aβ fibrils (Aβ fibrils; 46.5 hours, Aβ only approximately 900000): approximately 850000 RFU
Relative fluorescence for Aβ fibrils (Aβ fibrils; 48 hours, Aβ only approximately 1070000): approximately 940000 RFU
Relative fluorescence for Aβ fibrils (Aβ fibrils; 60 hours, Aβ only approximately 1010000): approximately 940000 RFU
Relative fluorescence for Aβ fibrils (Aβ fibrils; 72 hours, Aβ only approximately 980000): approximately 770000 RFU
survival for the SH-SY5Y cells (SH-SY5Y cells; [2]): 76%
survival for the SH-SY5Y cells (SH-SY5Y cells; [3]): 77%

O=C1C[C@@H](c2ccc(O)cc2)Oc2cc(O)ccc21 [liquiritigenin, reference compound]
fibrillization of Aβ protein (Aβ protein; 100 nM compound and 10 μM Aβ protein): 94%
fibrillization of Aβ protein (Aβ protein; 10 μM compound and 10 μM Aβ protein): 92% and 90%
fibrillization of Aβ protein (Aβ protein; 50 μM compound and 10 μM Aβ protein): 97%
fibrillization of Aβ protein (Aβ protein; 100 μM compound and 10 μM Aβ protein): 83%
survival for the SH-SY5Y cells (SH-SY5Y cells; [2]): 67%
survival for the SH-SY5Y cells (SH-SY5Y cells; [3]): 67%

O=C(/C=C/c1ccc(O[C@@H]2O[C@H](CO)[C@@H](O)[C@H](O)[C@H]2O)cc1)c1ccc(O)cc1O [isoliquiritin]
survival for the SH-SY5Y cells (SH-SY5Y cells; [2]): 72%
survival for the SH-SY5Y cells (SH-SY5Y cells; [3]): 74%
